Tested on: etoposide-treated IMR-90 cells
Experiment: Etoposide-induced senescence model, resazurin cell viability (screen and dose-response)
Assay type: cell-based, human
Conditions: for senolytic activity in screen: 3 days; for Therapeutic Index (TI): etoposide-induced senescence model, ratio of IC50 values between etoposide- and DMSO-treated IMR-90 fibroblasts
Method: Cell culture. Human lung fibroblast (IMR-90) cells were obtained from ATCC (CCL-186) and passaged less than 10 times (less than 30 population doublings) for all experiments described in this example, with the exception of high-passage cells used in the model of replicative senescence (see the section on Replicative senescence below). Cells were cultured in growth media comprising Eagle's Minimum Essential Medium (EMEM: ATCC 30-2003) supplemented with 10% fetal bovine serum (FBS: Thermo Fisher 16140071) and 1% penicillin-streptomycin (Thermo Fisher 15070063). Cells were incubated in a humidity-controlled incubator at 37° C., with 5% CO2. Cells were detached using trypsin-EDTA (0.05%; Gibco 25300120).
Etoposide-induced senescence. IMR-90 cells were cultured as described above. At between 30 to 50% confluence, the media was replaced with complete growth media containing vehicle (0.5% dimethyl sulfoxide: DMSO, MilliporeSigma D5879) or complete growth media containing 50 μM etoposide (prepared as a 1:200 dilution of a 10 mM stock solution in DMSO; etoposide, MilliporeSigma E1383). Cells were treated for 2 days, after which the media was replaced with fresh growth media and cells were allowed to recover for 4 days. Cells were then plated as described below.
Chemical screening. For all screening experiments. 99 μL of cells were plated into each well of a 96-well clear flat-bottom, black polystyrene tissue-culture-treated plate (Corning 3904) at a density of ˜10+ cells/well. Plates were incubated overnight for adhesion. The day after plating. 1 μL of each compound, prepared as either a 1 mM stock solution in DMSO (10 μM final concentration screen) or 0.1 mM stock solution in DMSO (1 μM final concentration screen), was added to each well using an Agilent Bravo liquid handler. A built-in slow mixing step involving aspirating and dispensing was used to enhance distribution of the added compounds in solution. Cells were incubated for 3 days, after which resazurin (MilliporeSigma R^7017) was added to each well to a final concentration of 0.15 mM. After an additional 1 day of incubation, the fluorescence excitation/emission at 550/590 nm was read using a SpectraMaxR M3 plate reader and manufacturer software (SoftMax Pro R 6). Experiments were performed in biological duplicate.
Three-fold serial dilutions of compound were prepared in DMSO, then added to cell plates (final concentration of DMSO. 1%). Cell viability was then assayed as detailed above, and resazurin fluorescence values were linearly interpolated with respect to values from empty and positive control (non-treatment) wells. Experiments were performed in biological duplicate each on two independent occasions. When possible, chemical stocks from commercial suppliers were used: econazole nitrate (Cayman Chemical 20223), artenimol (Cayman Chemical 19846), and ABT-263 (Cayman Chemical 11500) were from Cayman Chemical, and dehydrodeguelin was aliquoted from the screening library.
Calculation of cellular viability values in dose-response curves. […] For each sample, the fluorescence intensity value was normalized by the mean of two untreated control values. Cellular viability values are therefore indicated as fractions of the cellular viability of untreated controls. Vehicle (1% DMSO) control values are included in each dose-response curve. Experiments were performed in biological duplicate each on two independent occasions.
Calculation of baseline cellular viability values. […] Additionally, baseline cellular viability values were calculated for untreated cells at the start of the experiment. Resazurin was added to a final concentration of 0.15 mM on the day of seeding (corresponding to day 0 in FIG. 7).

[1] = 10 μM, active: control viability >0.5, Snc/control ratio <0.7

Structure (SMILES) | Therapeutic Index (TI) | further results
CN(C)CC#Cc1ccc(OCCCc2sc(N3CCc4cccc(C(=O)Nc5nc6ccccc6s5)c4C3)nc2C(=O)O)c(F)c1 [A-1155463, reference compound] | – | senolytic activity in screen [1]: active
Cc1c(-c2ccc(N3CCc4cccc(C(=O)Nc5nc6ccccc6s5)c4C3)nc2C(=O)O)cnn1CC12CC3CC(CC(C3)C1)C2 [A-1331852, reference compound] | – | senolytic activity in screen (1 μM): inactive; senolytic activity in screen [1]: active
CCOc1ccc(NC(=O)CSc2nc3ccc(NC(=O)c4cccc(C)c4)cc3s2)cc1 [compound 2] | +++ (compounds with a TI of >5 were labeled as +++) | –
COc1ccc(NC(=O)CSc2nc3ccc(NC(=O)c4ccccc4F)cc3s2)cc1 [compound 3] | +++ (compounds with a TI of >5 were labeled as +++) | –
O=C(CSc1nc2ccc(NC(=O)c3ccc(Cl)cc3Cl)cc2s1)Nc1ccccc1 [compound 4] | +++ (compounds with a TI of >5 were labeled as +++) | –
COc1ccc(C(=O)Nc2ccc3nc(SCC(=O)Nc4ccccc4)sc3c2)cc1OC [compound 5] | +++ (compounds with a TI of >5 were labeled as +++) | –
Cc1cccc(C(=O)Nc2ccc3nc(SCC(=O)Nc4ccccc4C)sc3c2)c1 [compound 7] | +++ (compounds with a TI of >5 were labeled as +++) | –
O=C(CSc1nc2ccc(NC(=O)c3ccccc3)cc2s1)NC[C@H]1CCCO1 [compound 8] | +++ (compounds with a TI of >5 were labeled as +++) | –
CCCCOc1ccc(NC(=O)CSc2nc3ccc(NC(=O)c4ccc(C(C)(C)C)cc4)cc3s2)cc1 [compound 9] | +++ (compounds with a TI of >5 were labeled as +++) | –
Cc1ccc(NC(=O)C(C)Sc2nc3ccc(NC(=O)c4ccccc4F)cc3s2)cc1 (stereo not shown) [compound 10] | +++ (compounds with a TI of >5 were labeled as +++) | –
COc1ccc(C(=O)Nc2ccc3nc(SCC(=O)Nc4ccc(C)cc4C)sc3c2)cc1 [compound 11] | +++ (compounds with a TI of >5 were labeled as +++) | –
COc1ccc(NC(=O)CSc2nc3ccc(NC(=O)c4cccc(OC)c4)cc3s2)cc1 [compound 12] | +++ (compounds with a TI of >5 were labeled as +++) | –
COc1cccc(C(=O)Nc2ccc3nc(SCC(=O)Nc4ccc(C)cc4)sc3c2)c1 [compound 13] | +++ (compounds with a TI of >5 were labeled as +++) | –
CC(C)c1ccc(NC(=O)CSc2nc3ccc(NC(=O)c4ccccc4)cc3s2)cc1 [compound 14] | +++ (compounds with a TI of >5 were labeled as +++) | –
CCC(Sc1nc2ccc(NC(=O)c3ccccc3)cc2s1)C(=O)Nc1ccc(C(C)=O)cc1 (stereo not shown) [compound 15] | +++ (compounds with a TI of >5 were labeled as +++) | –
COc1ccc(OC)c(NC(=O)CSc2nc3ccc(NC(=O)c4ccccc4C)cc3s2)c1 [compound 16] | +++ (compounds with a TI of >5 were labeled as +++) | –
CC(=O)c1ccc(NC(=O)CSc2nc3ccc(NC(=O)c4ccccc4Cl)cc3s2)cc1 [compound 17] | +++ (compounds with a TI of >5 were labeled as +++) | –
Cc1ccc(C(=O)Nc2ccc3nc(SCC(=O)N4CCc5ccccc54)sc3c2)cc1 [compound 18] | +++ (compounds with a TI of >5 were labeled as +++) | –
Cc1ccccc1C(=O)Nc1ccc2nc(SCC(=O)Nc3ccc(F)cc3)sc2c1 [compound 20] | +++ (compounds with a TI of >5 were labeled as +++) | –
COc1ccccc1C(=O)Nc1ccc2nc(SCC(=O)Nc3ccc(C(C)=O)cc3)sc2c1 [compound 21] | +++ (compounds with a TI of >5 were labeled as +++) | –
CCOc1ccc(NC(=O)CSc2nc3ccc(NC(=O)c4ccccc4Cl)cc3s2)cc1 [compound 22] | +++ (compounds with a TI of >5 were labeled as +++) | –

Structure (SMILES) | Therapeutic Index (TI) | further results
O=C(CSc1nc2ccc(NC(=O)c3ccccc3Cl)cc2s1)Nc1ccc(F)cc1 [compound 23] | +++ (compounds with a TI of >5 were labeled as +++) | –
Cc1ccc(C(=O)Nc2ccc3nc(SCC(=O)Nc4ccc(C(C)C)cc4)sc3c2)cc1 [compound 24] | +++ (compounds with a TI of >5 were labeled as +++) | –
CCOc1ccc(NC(=O)CSc2nc3ccc(N4C(=O)c5ccccc5C4=O)cc3s2)cc1 [compound 25] | +++ (compounds with a TI of >5 were labeled as +++) | –
CCOc1ccccc1NC(=O)CSc1nc2ccc(NC(=O)c3ccccc3Cl)cc2s1 [compound 26] | +++ (compounds with a TI of >5 were labeled as +++) | –
Cc1cccc(NC(=O)CSc2nc3ccc(NC(=O)c4ccccc4F)cc3s2)c1C [compound 27] | +++ (compounds with a TI of >5 were labeled as +++) | –
COc1ccccc1NC(=O)CSc1nc2ccc(NC(=O)c3ccccc3OC)cc2s1 [compound 28] | +++ (compounds with a TI of >5 were labeled as +++) | –
Cc1ccccc1C(=O)Nc1ccc2nc(SCC(=O)Nc3ccccc3F)sc2c1 [compound 29] | ++ (compounds with a TI of 1 to 5 were labelled as ++) | –
COc1ccccc1C(=O)Nc1ccc2nc(SCC(=O)N3CCc4ccccc43)sc2c1 [compound 30] | ++ (compounds with a TI of 1 to 5 were labelled as ++) | –
O=C(Nc1ccc2nc(SCC(=O)N3CCc4ccccc43)sc2c1)c1cccc(F)c1 [compound 31] | ++ (compounds with a TI of 1 to 5 were labelled as ++) | –
CCc1cccc(CC)c1NC(=O)CSc1nc2ccc(NC(=O)c3cccc(C)c3)cc2s1 [compound 32] | ++ (compounds with a TI of 1 to 5 were labelled as ++) | –
COc1ccc(C(=O)Nc2ccc3nc(SCC(=O)N4CCc5ccccc54)sc3c2)cc1 [compound 33] | ++ (compounds with a TI of 1 to 5 were labelled as ++) | –
CCCCOc1ccc(NC(=O)CSc2nc3ccc(NC(=O)c4ccc(C)cc4)cc3s2)cc1 [compound 34] | ++ (compounds with a TI of 1 to 5 were labelled as ++) | –
CCOc1ccc(C(=O)Nc2ccc3nc(SCC(=O)Nc4ccccc4C)sc3c2)cc1 [compound 35] | ++ (compounds with a TI of 1 to 5 were labelled as ++) | –
Cc1ccc(C(=O)Nc2ccc3nc(SCC(=O)Nc4ccccc4)sc3c2)cc1 [compound 36] | ++ (compounds with a TI of 1 to 5 were labelled as ++) | –
Cc1ccc(NC(=O)CSc2nc3ccc(NC(=O)c4ccccc4)cc3s2)cc1Cl [compound 37] | ++ (compounds with a TI of 1 to 5 were labelled as ++) | –
CCOc1ccc(NC(=O)C(C)Sc2nc3ccc(NC(=O)c4ccccc4)cc3s2)cc1 (stereo not shown) [compound 38] | ++ (compounds with a TI of 1 to 5 were labelled as ++) | –
COc1ccccc1NC(=O)CSc1nc2ccc(NC(=O)c3ccc(C)cc3)cc2s1 [compound 39] | ++ (compounds with a TI of 1 to 5 were labelled as ++) | –
CCOc1ccc(NC(=O)CSc2nc3ccc(NC(=O)c4ccccc4OC)cc3s2)cc1 [compound 40] | ++ (compounds with a TI of 1 to 5 were labelled as ++) | –
CCOc1ccc(NC(=O)C(C)Sc2nc3ccc(NC(=O)c4ccc(OC)cc4)cc3s2)cc1 (stereo not shown) [compound 41] | ++ (compounds with a TI of 1 to 5 were labelled as ++) | –
O=C(CSc1nc2ccc(NC(=O)c3ccccc3Cl)cc2s1)Nc1ccccc1F [compound 42] | ++ (compounds with a TI of 1 to 5 were labelled as ++) | –
CCOc1ccc(C(=O)Nc2ccc3nc(SCC(=O)Nc4cc(C)cc(C)c4)sc3c2)cc1 [compound 43] | ++ (compounds with a TI of 1 to 5 were labelled as ++) | –

Source: patent publication US20260097022A1, “COMPOUNDS AND USES THEREOF” (Integrated Biosciences, Inc., priority 2023, published 2026)
